Like-named read-outs stand apart in the source and are kept apart here.
Assays:
[1] = system: Magnaporthe grisea (Pyricularia oryzae—PYRIOR); test: microbe, parasite or virus in culture; assay type: cell-based; settings: Pyricularia oryzae, read-out: PYRIOR in vitro Growth Inhibition
[2] = system: Rhizoctonia solani (RHIZSO); test: microbe, parasite or virus in culture; assay type: cell-based; settings: Rhizoctonia solani, read-out: RHIZSO in vitro Growth Inhibition
[3] = system: Mycosphaerella graminicola (Septoria tritici—SEPTTR); test: In vitro fungal growth inhibition, Mycosphaerella graminicola (SEPTTR); assay type: cell-based; settings: Zymoseptoria tritici, read-out: SEPTTR in vitro Growth Inhibition
[4] = system: Stagonospora nodorum (Leptosphaeria nodorum—LEPTNO); test: In vitro fungal growth inhibition, Stagonospora nodorum (LEPTNO); assay type: cell-based; settings: Leptosphaeria, read-out: LEPTNO in vitro Growth Inhibition
Ustilago maydis (USTIMA) = test: microbe, parasite or virus in culture; assay type: cell-based; settings: Mycosarcoma maydis, read-out: USTIMA in vitro Growth Inhibition
[5] = system: Phytophthora infestans (PHYTIN); test: microbe, parasite or virus in culture; assay type: cell-based; settings: Phytophthora infestans, read-out: PHYTIN in vitro Growth Inhibition
[6] = system: Phytophthora infestans—PHYTIN; test: whole plant or invertebrate; assay type: in vivo; settings: Phytophthora, in Solanum lycopersicum, 24 h, read-out: PHYTIN in vivo 1 Day Protectant
[7] = system: Puccinia recondita—PUCCRT; test: Brown Rust of Wheat, in vivo whole plant, 24 Hour Protectant; settings: control of fungal infection vs untreated plants; for pest or weed control at 100 ppm: Puccinia, read-out: PUCCRT in vivo 1 Day Protectant
Erysiphe graminis—ERYSGT = test: Powdery Mildew of Wheat, in vivo whole plant, 24 Hour Protectant; settings: Erysiphe, control of fungal infection vs untreated plants, read-out: ERYSGT in vivo 1 Day Protectant
Septoria tritici—SEPTTR = test: Leaf Blotch of Wheat, in vivo whole plant, 24 Hour Protectant; settings: Zymoseptoria tritici, 24 h, control of fungal infection vs untreated plants, read-out: SEPTTR in vivo 1 Day Protectant
[8] = system: Leptosphaeria nodorum—LEPTNO; test: Glume Blotch of Wheat, in vivo whole plant, 24 Hour Protectant; settings: control of fungal infection vs untreated plants; for pest or weed control at 100 ppm: Leptosphaeria, read-out: LEPTNO in vivo 1 Day Protectant
[9] = wheat plants sprayed at 100 ppm, inoculated after 24 hours
[10] = 100 ppm spray, 24 hour protectant, wheat
[11] = 100 ppm spray, wheat, 24 hour protectant

Row | SMILES | inhibition at 25 ppm [1] [%] | inhibition at 25 ppm [2] [%] | inhibition at 25 ppm ([3]; 25 ppm in the growth medium) [%] | inhibition at 25 ppm ([4]; 25 ppm in the growth medium) [%] | inhibition at 25 ppm (Ustilago maydis (USTIMA)) [%] | inhibition at 25 ppm [5] [%] | pest or weed control at 100 ppm [6] [%] | pest or weed control at 100 ppm (Erysiphe graminis—ERYSGT; [9]) [%] | pest or weed control at 100 ppm (Septoria tritici—SEPTTR; [9]) [%] | pest or weed control at 100 ppm [8, 9] [%] | melting point [°C] | inhibition at 25 ppm ([3]; 25 ppm in growth medium) [%] | inhibition at 25 ppm ([4]; 25 ppm in growth medium) [%] | pest or weed control at 100 ppm [7, 11] [%] | pest or weed control at 100 ppm (Erysiphe graminis—ERYSGT; [11]) [%] | pest or weed control at 100 ppm (Septoria tritici—SEPTTR; [11]) [%] | other results
1 | COc1ccnc(C(=O)Nc2cccc(Oc3ccc(C(F)(F)F)cc3)n2)c1O [Compound 469] | > 80 | < 80 | < 80 | > 80 | < 80 | < 80 | < 25 | < 25 | 25 to 74 | 25 to 74 | 149 to 151 |  |  |  |  |  | PUCCRT in vivo 1 Day Protectant [7, 9]: + +
2 | O=C(Nc1ccc(Oc2ccc(C(F)(F)F)cc2)cc1)c1ncccc1O [Compound 217] | < 80 | < 80 |  |  | < 80 | < 80 | < 25 |  |  |  | 131 to 133 | < 80 | < 80 |  |  |  | pest or weed control at 100 ppm [7, 10]: < 25%; pest or weed control at 100 ppm (Erysiphe graminis—ERYSGT; [10]): 25 to 74%; pest or weed control at 100 ppm (Septoria tritici—SEPTTR; [10]): < 25%; pest or weed control at 100 ppm [8, 10]: < 25%
3 | O=C(NCc1ccccn1)c1nc(Br)ccc1O [Compound 483] | < 80 | < 80 | < 80 | > 80 | < 80 | < 80 | < 25 | < 25 | < 25 | < 25 | 124 to 126 |  |  |  |  |  | pest or weed control at 100 ppm [7, 9]: < 25%
4 | COc1ccnc(C(=O)N[C@H]2CC(=O)OCC(NC(=O)OC(C)(C)C)COC2=O)c1O (stereo partly drawn) [Compound 379] | < 80 | < 80 |  |  | < 80 | < 80 | < 25 |  |  |  | 118 to 121 | < 80 | < 80 | 25 to 74 | 25 to 74 | 25 to 74 | pest or weed control at 100 ppm [8, 11]: 25 to 74%
5 | COc1ccnc(C(=O)Nc2cccc(Sc3ccc(C(F)(F)F)cc3)c2)c1O [Compound 444] | < 80 | < 80 |  |  | < 80 | < 80 | < 25 |  |  |  | 133 to 134 | < 80 | < 80 | 25 to 74 | < 25 | 25 to 74 | pest or weed control at 100 ppm [8, 11]: 25 to 74%
6 | COc1ccnc(C(=O)N[C@H]2COC(=O)[C@H](Cc3ccccc3)[C@@H](OC(=O)c3ccccc3)[C@H](C)OC2=O)c1O [Compound 394] | < 80 | < 80 |  |  | < 80 | < 80 | < 25 |  |  |  | 181 to 185 | > 80 | > 80 | 25 to 74 | < 25 | 25 to 74 | LEPTNO in vivo 1 Day Protectant [8, 11]: + +
7 | O=C(NCc1cccc2ccccc12)c1ncccc1O [Compound 228] | < 80 | < 80 |  |  | < 80 | < 80 | 25 to 74 |  |  |  | 106 to 109 | < 80 | < 80 |  |  |  | pest or weed control at 100 ppm [7, 10]: < 25%; pest or weed control at 100 ppm (Erysiphe graminis—ERYSGT; [10]): < 25%; pest or weed control at 100 ppm (Septoria tritici—SEPTTR; [10]): < 25%; pest or weed control at 100 ppm [8, 10]: < 25%
8 | COc1ccc(C(C)NC(=O)c2nc(Br)ccc2O)cc1 (stereo not drawn) [Compound 486] | > 80 | < 80 | < 80 | < 80 | < 80 | < 80 | < 25 | < 25 | < 25 | < 25 | 111 to 113 |  |  |  |  |  | pest or weed control at 100 ppm [7, 9]: < 25%

Reference: US6706740B2, “Fungicidal heterocyclic aromatic amides and their compositions, methods of use and preparation” (Dow AgroSciences LLC, priority 1999, dated 2004)
